Measurements published in US20190093170A1, “USE OF TRANSLATIONAL PROFILING TO IDENTIFY TARGET MOLECULES FOR THERAPEUTIC TREATMENT” (THE REGENTS OF THE UNIVERSITY OF CALIFORNIA, priority 2013, published 2019).

Tested on: PC3 human prostate cancer cells
Assay: Ribosome profiling: translational efficiency (ribosome footprint vs RNA-seq read density);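 further: Per-gene footprint-to-mRNA density ratio averaged per codon over the coding sequence, scaled so the median gene equals 1.0 after excluding regulated genes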
Assay type: cell-based
Settings: for Rapamycin TrlEff: 3-hour treatment with rapamycin (50 nM) in PC3 cells
Description: Given the critical role for mTOR in prostate cancer, PC3 human prostate cancer cells, in which mTOR is constitutively hyperactivated, were used to delineate translationally controlled gene expression networks upon complete or partial mTOR inhibition. Ribosome profiling was optimized to assess quantitatively ribosome occupancy genome-wide in cancer cells.
Cells were subsequently treated with cycloheximide (100 μg ml^−1; Sigma) and detergent lysis was performed in the dish. The lysate was treated with DNase and clarified, and a sample was taken for RNA-seq analysis. Lysates were subjected to ribosome footprinting by nuclease treatment. Ribosome-protected fragments were purified, and deep sequencing libraries were generated from these fragments, as well as from poly(A) mRNA purified from non-nuclease-treated lysates. These libraries were analyzed by sequencing on an Illumina GAII.
Ribosome footprint and RNA-seq sequencing reads were aligned against a library of transcripts from the UCSC Known Genes database GRCh37/hg19. The first 25 nucleotides of each read were aligned using Bowtie and this initial alignment was then extended to encompass the full fragment-derived portion of the sequencing read while excluding the linker sequence. Read density profiles were then constructed for the canonical transcript of each gene, using only reads with 0 or 1 total mismatches between the read sequence and the reference sequence, comprised of the transcript fragment followed by the linker sequence. Footprint reads were assigned to an A site nucleotide at position +15 to +17 of the alignment, based on the total fragment length; mRNA reads were assigned to the first nucleotide of the alignment. The average read density per codon was then computed for the coding sequence of each transcript, excluding the first 15 and last 5 codons, which can display atypical ribosome accumulation.
Average read density was used as a measure of mRNA abundance (RNA-seq reads) and of protein synthesis (ribosome profiling reads). For most analyses, genes were filtered to require at least 256 reads in the relevant RNA-seq samples. Translational efficiency was computed as the ratio of ribosome footprint read density to RNA-seq read density, scaled to normalize the translational efficiency of the median gene to 1.0 after excluding regulated genes (log 2 fold-change+1.5 after normalizing for the all-gene median). Changes in protein synthesis, mRNA abundance and translational efficiency were similarly computed as the ratio of read densities between different samples, normalized to give the median gene a ratio of 1.0. This normalization corrects for differences in the absolute number of sequencing reads obtained for different libraries.

## CO[C@H]1C[C@@H]2CC[C@@H](C)[C@@](O)(O2)C(=O)C(=O)N2CCCC[C@H]2C(=O)O[C@H]([C@H](C)C[C@@H]2CC[C@@H](O)[C@H](OC)C2)CC(=O)[C@H](C)/C=C(\C)[C@@H](O)[C@@H](OC)C(=O)[C@H](C)C[C@H](C)/C=C/C=C/C=C/1C [Rapamycin, rapamycin]
Gene ACD
  Rapamycin TrlEff: 2.06
Gene ACTG1
  TrlEff: −0.07
Gene AGRN
  TrlEff: 0.51
Gene AHCY
  TrlEff: −0.23
Gene ALKBH7
  TrlEff: 0.28
Gene AP2A1
  TrlEff: −0.04
Gene ARD1A
  TrlEff: 0.01
Gene ATP5G2
  TrlEff: −0.28
Gene C17orf28
  Rapamycin TrlEff: 1.66
Gene C21orf66
  TrlEff: −0.09
Gene CCNA1
  Rapamycin TrlEff: 1.81
Gene CCNI
  TrlEff: −0.45
Gene CD44
  TrlEff: −0.46
Gene CIRBP
  TrlEff: 0.10
Gene CLPTM1
  TrlEff: 0.26
Gene COL6A2
  TrlEff: 0.43
Gene CRTAP
  TrlEff: −1.17
Gene DDX51
  Rapamycin TrlEff: 1.68
Gene DGCR2
  Rapamycin TrlEff: 1.69
Gene ECSIT
  TrlEff: 0.41
Gene EEF1A1
  Rapamycin TrlEff: −1.57
Gene EEF1A2
  TrlEff: −0.03
Gene EEF1D
  TrlEff: −0.84
Gene EEF1G
  TrlEff: −1.15
Gene EEF2
  TrlEff: −1.12
Gene EIF3H
  TrlEff: −0.79
Gene EIF3L
  TrlEff: −0.85
Gene EIF4B
  TrlEff: −1.21
Gene EVPL
  TrlEff: 0.30
Gene FAM83H
  TrlEff: 0.71
Gene FAM128B
  TrlEff: 0.27
Gene FASN
  TrlEff: 0.47
Gene GAPDH
  TrlEff: −0.27
Gene GLTSCR2
  TrlEff: −0.68
Gene GNB2L1
  TrlEff: −0.77
Gene GTPBP3
  Rapamycin TrlEff: 1.56
Gene HNRNPA1
  TrlEff: −0.86
Gene HSPA8
  TrlEff: −0.46
Gene IMPDH2
  TrlEff: −0.39
Gene LAMA5
  TrlEff: 0.87
Gene LMF2
  TrlEff: 0.39
Gene MAPK6
  Rapamycin TrlEff: −2.43
Gene MAPKAPK2
  Rapamycin TrlEff: 1.50
Gene MTA1
  TrlEff: −0.05
Gene NCLN
  TrlEff: 0.67
Gene NFATC21P
  Rapamycin TrlEff: 1.54
Gene NR2F1
  Rapamycin TrlEff: 1.94
Gene PABPC1
  TrlEff: −1.44
Gene PABPC4
  TrlEff: −0.80
Gene PACS1
  TrlEff: 0.04
Gene PFDN5
  TrlEff: −0.51
Gene PGLS
  TrlEff: 0.20
Gene PGM1
  TrlEff: −0.55
Gene PNKP
  TrlEff: 0.74
Gene PRKD3
  Rapamycin TrlEff: −1.72
Gene PTGES2
  TrlEff: 0.52
Gene RABGGTB
  TrlEff: −0.84
Gene RBPJ
  Rapamycin TrlEff: −1.58
Gene RPL3
  TrlEff: −1.08
Gene RPL4
  TrlEff: −0.85
Gene RPL7
  TrlEff: −1.06
Gene RPL7A
  TrlEff: −0.74
Gene RPL9
  TrlEff: −1.00
Gene RPL10
  TrlEff: −0.79
Gene RPL10A
  TrlEff: −0.94
Gene RPL11
  TrlEff: −1.08
Gene RPL12
  TrlEff: −0.94
Gene RPL13
  TrlEff: −0.38
Gene RPL15
  TrlEff: −0.51
Gene RPL18A
  TrlEff: −0.82
Gene RPL19
  TrlEff: −0.66
Gene RPL22
  TrlEff: −0.89
Gene RPL22L1
  TrlEff: −0.68
Gene RPL24
  TrlEff: −0.63
Gene RPL26
  TrlEff: −1.11
Gene RPL27
  TrlEff: −0.33
Gene RPL27A
  TrlEff: −0.96
Gene RPL28
  Rapamycin TrlEff: −1.59
Gene RPL30
  TrlEff: −0.99
Gene RPL31
  TrlEff: −0.62
Gene RPL32
  TrlEff: −0.97
Gene RPL34
  TrlEff: −1.12
Gene RPL36A
  TrlEff: −1.11
Gene RPL37A
  TrlEff: −1.02
Gene RPL39
  TrlEff: −1.65
  Rapamycin TrlEff: −2.11
Gene RPL41
  TrlEff: −1.15
Gene RPLP0
  TrlEff: −0.42
Gene RPLP2
  TrlEff: −1.18
Gene RPS2
  TrlEff: −0.56
Gene RPS3
  TrlEff: −0.92
Gene RPS3A
  TrlEff: −1.15
Gene RPS4X
  TrlEff: −1.15
Gene RPS5
  TrlEff: −0.77
Gene RPS7
  TrlEff: −0.76
Gene RPS9
  TrlEff: −0.60
Gene RPS12
  TrlEff: −1.22
Gene RPS13
  TrlEff: −0.82
Gene RPS14
  TrlEff: −0.60
Gene RPS15
  TrlEff: 0.03
Gene RPS15A
  TrlEff: −0.96
Gene RPS19
  TrlEff: −0.74
Gene RPS20
  TrlEff: −1.35
Gene RPS21
  TrlEff: −0.60
Gene RPS25
  TrlEff: −0.89
Gene RPS27
  TrlEff: −1.54
  Rapamycin TrlEff: −1.55
Gene RPS27A
  TrlEff: −0.89
Gene RPS28
  TrlEff: −0.80
Gene SDCCAG10
  Rapamycin TrlEff: −1.50
Gene SLC19A1
  TrlEff: 0.23
Gene TKT
  TrlEff: −0.11
Gene TPT1
  TrlEff: −1.22
Gene TSC2
  TrlEff: 0.34
Gene UBA52
  TrlEff: −0.22
Gene UBTD2
  Rapamycin TrlEff: −1.64
Gene UCHL5
  Rapamycin TrlEff: −1.56
Gene VHL
  Rapamycin TrlEff: 1.67
Gene VIM
  TrlEff: −0.40
Gene YB1
  TrlEff: −0.59
